Laboratory results taken from patent US6514942B1, “Methods and compositions for stimulating T-lymphocytes” (The Board of Regents, The University of Texas System, priority 1995, dated 2003).

Experiments:
OVA-1, HER-2high = experiment: Lysis of peptide pre-pulsed autologous tumor by CTL-TAL (HLA-A2- system); assay type: cell-based, human; conditions: OVA-1 pre-pulsed with peptide
Experimental: (§1) Tumor cells and fibroblasts were labeled with 200 μCi of ^51Cr (Na^51CrO4; Amersham, Arlington Heights, Ill.) for 90 min at 37° C. (Ioannides et al., 1991). Lymphoblastoid cells and HLA-A2 transfectants were labeled overnight in RPMI-FCS, then washed three times and incubated with effector cells in RPMI-FCS in an incubator with 5%. CO2 (Bednarek et al., 1991; Gammon et al., 1992). When peptide recognition was determined, targets were incubated with 25 μM of peptides overnight during ^51Cr labeling or with 10 μM peptide for 2 h at 37° C. in RPMI-FCS then washed three times before being incubated with effector cells. Separate controls for spontaneous and total lysis were made for each peptide-pulsed target (Ioannides et al., 1991; Bednarek et al., 1991; Gammon et al., 1992). After 4-5 h, 100 μl of supernatant was collected and counted. To determine maximum lysis in 20-h assays, plates were left undisturbed in the incubator and the supernatant was collected after overnight incubation. For cold target inhibition studies, C1R:A2 cells were preincubated with HER-2 or control peptides overnight, then washed and admixed with ^51Cr-labeled targets at 2:1 and 6:1 (cold:hot targets) ratios. Percentage lysis was calculated from the formula: 100×[(E−S)/(T−S)], where E is experimental release, S is release in the absence of CTL, and T is release in 2 M HCl.
(§2) To address whether these peptides interfere with tumor lysis by autologous tumor reactive CTL-TAL in HLA-A2^− systems, the lysis of OVA-1, HER-2^high (HLA-A1, 24, B8, 35, Cw4) and OVA-31, HER-2^high was determined by pre-pulsing with either C43 or as a control, C44 peptide (VS→II). Target lysis by CTL-1 was: OVA-1 (68%), K562 (18%), OVA-1 plus C43 (37%), and OVA-1 plus C44 (51%). […] However, C43 and C44 had no effect on lysis of OVA-31 by CTL-31.

OVA-31, HER-2high = experiment: as above; assay type: cell-based, human; conditions: OVA-31 pre-pulsed with peptide
Experimental: as §1, §2

Sequence: RFRELVSEFSRMAR [Peptide C43, HER-2:968-981 14mer peptide]
- Target lysis by CTL-1 (OVA-1, HER-2high): 37%
- inhibition of lysis of OVA-1 by CTL-1 (OVA-1, HER-2high): 45%
- effect on lysis of OVA-31 by CTL-31 (OVA-31, HER-2high): no effect
